The record followed here is patent publication US11933781B2, “Fibrosis model and methods of use thereof” (The Regents of the University of Colorado, priority 2020, dated 2024).

Test [1] concerns primary human lung fibroblasts (HLFs). The experiment in a line: Activation of human lung fibroblasts on 3 kPa hydrogels by HBEC conditioned media. In kind it is cell-based. The following applies: HLFs in IPF conditioned HBEC media supplemented with inhibitor. The method, then: Culture and treatment of HLFs: Primary human lung fibroblasts (HLFs) were obtained from control lungs not suitable for transplantation at National Jewish Health. Briefly, pieces of tissue were placed into a tissue-culture dish and weighed down by a coverslip. Cells were cultured in DMEM (Corning, Corning, New York, 10-013-cv) supplemented with L-glutamine (25-005-cl), penicillin/streptomycin (Corning, Corning, New York, 30-002-c1), and 10% fetal bovine serum (ATCC®, Manassas, Virginia, 30-2020). These fibroblasts were then sub-cultured in t-75 flasks. All HLFs used in this study (N=4) were seeded at passage 3. […]
Quantitative RT-PCR Analysis: Total RNA was extracted using RNeasy® Mini kit (Qiagen, Hilden, Germany) and quantified by NanoDrop™ (ThermoFisher Scientific™, Waltham, Massachusetts).Reverse transcription was completed using the High Capacity cDNA Reverse Transcription Kit (Applied Biosystems™, Thermo Fisher Scientific™, Waltham, Massachusetts). […]
Immunofluorescence and cell number quantification for HLF experiments: For fluorescence quantification, (i.e., vimentin or alpha-SMA) images were all processed using the same settings. Fluorescence intensity was determined by channel separation and measurement of mean gray value for the field and normalized to total cell number. Cell number was determined by automated counting in ImageJ. […]

Test [2] relates to control HBECs. The experiment in a line: Induced unjamming of control HBECs at air-liquid interface (live cell imaging, cell shape). In kind it is cell-based, human. From the text: (§1) Epithelial Cell Culture: Primary human bronchial epithelial cells (HBECs) were obtained from two sources (1) provided by Dr. Hong Wei Chu at National Jewish Health, or (2) lung transplant collection at the University of Colorado Hospital (IRB protocol: 11-1664 or 18-0572). Epithelial cells from bronchial brushes or CT-guided dissection were expanded to passage 2 before being cultured at air liquid interface (ALI). Control (N=11), IPF (N=6), and COPD (N=3) were age matched and controls had no history of chronic lung disease (Table 1). Cells were seeded on 24-Transwell plates (Corning, Corning, New York, 3470) coated with type I collagen (Corning, Corning, New York, 354236) and maintained under submerged conditions for five to seven days until the cells reached confluence. Culture media was a 1:1 mixture of DMEM and BEBM (Lonza, Basel, Switzerland, CC170) supplemented with retinoic acid (Sigma-Aldrich, Germany, R-2625) nystatin (Sigma-Aldrich, Germany N1638), and bovine serum albumin (FisherSci, Thermo Fisher Scientific, Waltham, Massachusetts BP9703100). Once confluent, apical media was removed and maintained at ALI. HBECs began recapitulating the in vivo airway, with production of mucus (6-9 days after establishing ALI) and development of a pseudostratified epithelium. Cells were switched to a starvation media (lacking supplemental epidermal growth factor, hydrocortisone, and bovine pituitary extract) 24 hours prior to experimentation.
(§2) For inhibitor, activator, and ligand treatments HBECs were cultured in a starvation media in the absence of EGF, hydrocortisone, and bovine pituitary extract for 24 hours prior to treatment initiation. Cells were then treated for 2-4 hours (with exception of AREG neutralizing antibody which was maintained in the culture media), media was aspirated, the wells were washed with warm PBS and then replaced with fresh starvation media without inhibitor/activator/ligand present, and subsequently imaged. For experiments that required subsequent media changes (96 hour) cells fresh starvation media was changed 48 hours afterwards.
(§3) Live Cell Imaging and Dynamics Measurement: To assess cellular dynamics, time-lapse microscopy and subsequent analysis were completed. Two imaging schemes were utilized: (1) images were taken every 5 minutes for 200 minutes during HBEC differentiation; (2) images were taken every 20 minutes for 48, 96, or 144 hours after HBEC experimental intervention. Phase contrast images were acquired on a Keyence BZ-X810 with a stage incubator (37° C., 5% CO2). Dynamic analysis followed previously published workflows (10-12, 22). Briefly, using phase contrast images instantaneous velocities were mapped by particle image velocimetry utilizing open source PIVLab on MATLAB. Velocity fields were obtained with 2 passes (64×64 and 32×32 pixel size interrogation window with 50% overlap) with a pixel size of 0.75488 μm using a Fast Fourier Transformation method. Trajectories from the PIV were seeded onto a grid and obtained via forward-integration of subsequent fields. These values were then used to determine mean-squared-displacement (MSD) and self-overlap order parameter (Q): MSD(Δt)= ? ri(t+Δt)−ri(t)|2 ? and Q(Δt)=N−1ΣwiNi=1 as previously published. Instantaneous room mean squared velocity (VRMS) of the monolayer was obtained as previously published: VRMS(t)=√1MΣ ? |v(t)2 ? jMj=1
(§4) Cell Shape Analysis: Cell shape measurements were achieved via cell border delineation by F-actin immunofluorescence. Images were segmented utilizing SeedWater Segmenter. Similar to previously published workflows, we segmented images which were subsequently analyzed in ImageJ for the shape index (q=Perimeter√Area) and aspect ratio (major and minor axis) for all cells within a given field of view. For each experimental condition an n≥3 was used with at least 3 independent wells per donor per treatment condition. […]

Test [3] deals with control HBECs. The experiment in a line: Immunofluorescence of Ki67 and YAP in control HBECs. The class given is cell-based, human. The protocol: Immunofluorescence staining: Cells were fixed with 4% paraformaldehyde in PBS with calcium and magnesium for 30 minutes at room temperature. Cells were then washed with PBS and subsequently permeabilized (Triton™-X, at 0.1%) and blocked with 5% bovine serum albumin in PBS for 1 hour at room temperature. Cells were then incubated for >16 hours at 4 degrees with primary antibodies. Primary antibodies were aspirated, and cells were washed with PBS+0.1% Tween-20 at room temperature. Cells were then incubated for 1 hour at room temperature with secondary antibodies (1:500) and/or Phalloidin-iFluor™ 488 1:2000. Cells were stained with 4′,6-diamidino-2-phenylindole at 1:20000 (BioLegend®, San Diego, California, 422801). Subsequently, transwell membranes, or hydrogels, were removed from the well and mounted on glass slides with Fluoromount-G® (SouthernBiotech™, Birmingham, Alabama, 0100-01). Slides were then visualized using an Olympus BX63 microscope (Olympus, Tokyo, Japan).
Immunofluorescence and cell number quantification for HBEC experiments: For total fluorescence quantification (i.e., ERBB2), all images were processed in the same manner with the same microscopy settings. To determine mean fluorescence the channel of interest was separated in ImageJ, and the mean gray value was measured for the field of view and normalized by the total number of cells. Cell counting was achieved by taking 40×images and manually counting all nuclei in a field of view (approximately 200-300). The number of cells also expressing the marker of interested were then counted and normalized by the total number of cells per field. For each experiment a biological n≥3 was used with at least 5 fields of view per well and at least 2 wells being counted in total per donor.

Test [4] concerns control HBECs. The experiment in a line: Barrier function (TEER) of control HBECs. In kind it is cell-based, human. The method, then:
Barrier function measurements: The transepithelial electrical resistance (TEER) was assessed utilizing the Millicell® ERS-2 Voltohmeter (MilliporeSigma™, Burlington, Massachusetts, MERS00002). Briefly, cells were incubated with PBS with calcium and magnesium (at 37 degrees for 20 minutes prior to barrier measurement). The probe was inserted, and the resultant ohm reading was recorded. The final value was calculated by:
This value was subtracted by 100 (the resistance of a blank well) and multiplied by 0.33 (the surface area of a single well in a 24 well plate). A minimum of 3 wells were recorded per donor per treatment condition. These values were subsequently averaged per treatment and graphed.

In test [5] the test system is IPF HBECs. The experiment in a line: Induction of the unjammed-to-jammed transition (UJT) in IPF HBECs. The settings on record: day 14 IPF HBECs. In kind it is cell-based, human.
From the text: as §1, §2, §3, §4

Test [6] has as its system proximal, jammed cultures. The experiment in a line: IL-6 family cytokine induced unjamming of proximal airway epithelial cultures. In kind it is cell-based, human. The following applies: proximal cultures pre-treated, then stimulated with IL-6 family cytokines. The protocol: as §3, with “These values were then used to determine mean-squared-displacement (MSD) and self-overlap order parameter (Q): MSD(Δt)= ? ri(t+Δt)−ri(t)|2 ? and Q(Δt)=N−1ΣwiNi=1 as previously published. Instantaneous room mean squared velocity (VRMS) of the monolayer was obtained as previously published: VRMS(t)=√1MΣ ? |v(t)2 ? jMj=1” left out
Cell Shape Analysis: Cell shape measurements were achieved via cell border delineation by F-actin immunofluorescence. […] Similar to previously published workflows, we segmented images which were subsequently analyzed in ImageJ for the shape index (q=Perimeter√Area) and aspect ratio (major and minor axis) for all cells within a given field of view. […]

[7] abbreviates: control HBECs by MUC5B promoter variant status.
[8] abbreviates: control HBECs, 48 hours after treatment.

On to `NC(=O)c1ccc(-c2nc(-c3ccc4c(c3)OCO4)c(-c3ccccn3)[nH]2)cc1` [SB431542], for which, in test [1], the fibroblast activation entry is listed as “reduced fibroblast activation”; the “rescue of increase in cell number and pro-fibrotic gene expression” value was “none of these treatments alone were able to fully rescue the increase in cell number or the associated pro-fibrotic gene expression”.

Regarding “AREG: Recombinant amphiregulin, low affinity EGFR ligand (R&D Systems 262-AR)”, the “ability to induce an unjammed state in control epithelia” value in test [2] (control HBECs at ALI day 14) is recorded as “only AREG treatment had the ability to induce an unjammed state”. In test [2] (setting [7]), the “persistence in the unjammed state, rs35705950 GT vs GG epithelia” value is given as “persisted in the unjammed state significantly longer than GG epithelia” and the “root-mean-squared velocity, rs35705950 GT vs GG epithelia” value was “higher root-mean-squared velocity than their GG counterparts”. Also, the “induction of unjammed state in mature monolayer” value in test [2] (control HBECs treated at ALI day 28) is listed as “unjammed state was induced regardless of monolayer maturity”. Besides, in test [2] (treatment at day 14 of ALI), the “time at which migratory capacity of control epithelia begins to diminish” value was approximately 36 h. In addition, the “cell type showing YAP nuclear localization” value in test [3] (control HBECs after treatment) was “predominantly in multi-ciliated cells (FOXJ1+)”. Moreover, in test [3] (setting [8]), the YAP nuclear localization result was “did lead to YAP nuclear localization” and the “proliferation (Ki67+)” value is given as “neither AREG nor XMU treatment resulted in increased proliferation”. The “barrier function in genotype-dependent unjamming” value in test [4] (control HBECs GG or GT) is “did not alter barrier function”. In test [4] (control HBECs at ALI day 14), the “barrier function (TEER) after treatment” value was “without diminishing barrier function”.

In the case of `O=[N+]([O-])c1ccc2c(c1)S(=O)(=O)C=C2` [Stattic], in test [5], the “induction of the UJT (jamming) in IPF epithelia” value is listed as “did not induce the UJT”. Moreover, the “effect of inhibitor pre-treatment on IL-6 family cytokine induced unjamming” value in test [6] is on record as “JAK/STAT signaling was dispensable for IL-6 family cytokine induced unjamming in proximal cultures”.
